{"source": "ChEMBL document CHEMBL5154671", "about": "(Eur J Med Chem, 2022)", "key": {"[1]": {"molecular_target": "Free fatty acid receptor 1 (Homo sapiens, UniProt O14842)", "sequence (O14842 whole entry)": "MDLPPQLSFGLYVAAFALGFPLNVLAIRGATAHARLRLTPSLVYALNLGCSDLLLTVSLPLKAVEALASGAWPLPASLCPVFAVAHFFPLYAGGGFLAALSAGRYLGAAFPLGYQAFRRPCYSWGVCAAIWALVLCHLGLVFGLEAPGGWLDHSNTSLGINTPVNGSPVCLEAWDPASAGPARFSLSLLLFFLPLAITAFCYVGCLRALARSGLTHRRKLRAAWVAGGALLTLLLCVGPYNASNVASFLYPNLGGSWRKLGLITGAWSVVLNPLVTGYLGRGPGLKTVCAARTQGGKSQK", "assay": "Agonist activity at human FFA1 expressed in CHO cells measured by FLIPR assay", "type": "functional, cell-based"}, "[2]": {"molecular_target": "T1, Peroxisome proliferator-activated receptor alpha (Homo sapiens, UniProt Q07869)", "T1 sequence (Q07869 whole entry)": "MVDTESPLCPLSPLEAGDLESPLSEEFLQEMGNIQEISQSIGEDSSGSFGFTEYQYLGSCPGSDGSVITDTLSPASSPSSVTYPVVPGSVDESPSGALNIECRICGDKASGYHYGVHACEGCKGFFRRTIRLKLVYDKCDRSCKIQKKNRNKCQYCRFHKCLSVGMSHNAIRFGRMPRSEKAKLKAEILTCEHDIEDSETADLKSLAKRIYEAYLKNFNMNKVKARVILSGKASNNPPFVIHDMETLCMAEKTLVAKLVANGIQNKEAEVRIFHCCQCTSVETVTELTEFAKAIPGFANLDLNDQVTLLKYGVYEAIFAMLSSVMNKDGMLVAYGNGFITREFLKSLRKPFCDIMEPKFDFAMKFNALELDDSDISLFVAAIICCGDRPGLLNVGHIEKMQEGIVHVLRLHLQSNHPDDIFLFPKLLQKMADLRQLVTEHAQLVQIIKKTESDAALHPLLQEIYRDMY", "assay": "Agonist activity at human PPARalpha measured by dual luciferase reporter gene assay"}, "Mus musculus [3]": {"system": "Mus musculus", "assay": "Hypolipidemic activity in Triton1339W-induced hyperlipidemic ICR mouse model assessed as reduction in plasma TG level at 80 mg/kg, administered once daily for 5 days", "type": "functional, organism-based", "settings": "time 5.0 day"}, "Mus musculus [4]": {"system": "Mus musculus", "assay": "Hypolipidemic activity in Triton1339W-induced hyperlipidemic ICR mouse model assessed as reduction in plasma TC level at 80 mg/kg, administered once daily for 5 days", "type": "functional, organism-based", "settings": "time 5.0 day"}, "[5]": {"assay": "Clearance in rat liver microsomes in presence of NADPH measured by LC/MS analysis", "type": "ADME, Microsome", "settings": "read-out: CLH"}, "Mus musculus [6]": {"system": "Mus musculus", "assay": "Anti-NASH activity in high-fat/high-sugar diet and CCl4-induced nonalcoholic steatohepatitis male C57BL/6 mouse assessed as decrease in serum TG level at 100 mg/kg, po administered for 4 weeks", "type": "functional, organism-based"}, "Mus musculus [7]": {"system": "Mus musculus", "assay": "Anti-NASH activity in high-fat/high-sugar diet and CCl4-induced nonalcoholic steatohepatitis male C57BL/6 mouse assessed as decrease in hepatic TC level at 100 mg/kg, po administered for 4 weeks", "type": "functional, organism-based"}, "Mus musculus [8]": {"system": "Mus musculus", "assay": "Anti-NASH activity in high-fat/high-sugar diet and CCl4-induced nonalcoholic steatohepatitis male C57BL/6 mouse assessed as decrease in hepatic TG level at 100 mg/kg, po administered for 4 weeks", "type": "functional, organism-based"}, "Mus musculus [9]": {"system": "Mus musculus", "assay": "Anti-NASH activity in high-fat/high-sugar diet and CCl4-induced nonalcoholic steatohepatitis male C57BL/6 mouse assessed as decrease in liver non-esterified fatty acid contents at 100 mg/kg, po administered for 4 weeks", "type": "functional, organism-based"}, "Mus musculus [10]": {"system": "Mus musculus", "assay": "Anti-NASH activity in high-fat/high-sugar diet and CCl4-induced nonalcoholic steatohepatitis male C57BL/6 mouse assessed as decrease in disease activity score at 100 mg/kg, po administered for 4 weeks", "type": "functional, organism-based"}, "Mus musculus [11]": {"system": "Mus musculus", "assay": "Anti-NASH activity in high-fat/high-sugar diet and CCl4-induced nonalcoholic steatohepatitis male C57BL/6 mouse assessed as decrease in lobular inflammation score at 100 mg/kg, po administered for 4 weeks", "type": "functional, organism-based"}, "Mus musculus [12]": {"system": "Mus musculus", "assay": "Anti-NASH activity in high-fat/high-sugar diet and CCl4-induced nonalcoholic steatohepatitis male C57BL/6 mouse assessed as decrease in F4/80 expression at 100 mg/kg, po administered for 4 weeks", "type": "functional, organism-based"}, "Mus musculus [13]": {"system": "Mus musculus", "assay": "Protection against liver fibrosis in high-fat/high-sugar diet and CCl4-induced nonalcoholic steatohepatitis male C57BL/6 mouse assessed as decrease in collagen area at 100 mg/kg, po administered for 4 weeks", "type": "functional, organism-based"}, "Mus musculus [14]": {"system": "Mus musculus", "assay": "Anti-NASH activity in high-fat/high-sugar diet and CCl4-induced nonalcoholic steatohepatitis male C57BL/6 mouse assessed as decrease in ACC mRNA expression at 100 mg/kg, po administered for 4 weeks", "type": "functional, organism-based"}, "Mus musculus [15]": {"system": "Mus musculus", "assay": "Anti-NASH activity in high-fat/high-sugar diet and CCl4-induced nonalcoholic steatohepatitis male C57BL/6 mouse assessed as decrease in SCD1 mRNA expression at 100 mg/kg, po administered for 4 weeks", "type": "functional, organism-based"}, "Mus musculus [16]": {"system": "Mus musculus", "assay": "Anti-NASH activity in high-fat/high-sugar diet and CCl4-induced nonalcoholic steatohepatitis male C57BL/6 mouse assessed as decrease in FAS mRNA expression at 100 mg/kg, po administered for 4 weeks", "type": "functional, organism-based"}, "Mus musculus [17]": {"system": "Mus musculus", "assay": "Anti-NASH activity in high-fat/high-sugar diet and CCl4-induced nonalcoholic steatohepatitis male C57BL/6 mouse assessed as decrease in SREBP-1C mRNA expression at 100 mg/kg, po administered for 4 weeks", "type": "functional, organism-based"}, "Mus musculus [18]": {"system": "Mus musculus", "assay": "Anti-inflammatory activity in high-fat/high-sugar diet and CCl4-induced nonalcoholic steatohepatitis male C57BL/6 mouse assessed as decrease in TNF-alpha mRNA expression at 100 mg/kg, po administered for 4 weeks", "type": "functional, organism-based"}, "Mus musculus [19]": {"system": "Mus musculus", "assay": "Anti-inflammatory activity in high-fat/high-sugar diet and CCl4-induced nonalcoholic steatohepatitis male C57BL/6 mouse assessed as decrease in IL-1beta mRNA expression at 100 mg/kg, po administered for 4 weeks", "type": "functional, organism-based"}, "Mus musculus [20]": {"system": "Mus musculus", "assay": "Anti-fibrotic activity in high-fat/high-sugar diet and CCl4-induced nonalcoholic steatohepatitis male C57BL/6 mouse assessed as decrease in TIMP-1 mRNA expression at 100 mg/kg, po administered for 4 weeks", "type": "functional, organism-based"}, "Mus musculus [21]": {"system": "Mus musculus", "assay": "Anti-fibrotic activity in high-fat/high-sugar diet and CCl4-induced nonalcoholic steatohepatitis male C57BL/6 mouse assessed as decrease in COL1A1 mRNA expression at 100 mg/kg, po administered for 4 weeks", "type": "functional, organism-based"}, "Mus musculus [22]": {"system": "Mus musculus", "assay": "Antioxidant activity in high-fat/high-sugar diet and CCl4-induced nonalcoholic steatohepatitis male C57BL/6 mouse assessed as increase in catalase mRNA expression at 100 mg/kg, po administered for 4 weeks", "type": "functional, organism-based"}, "Mus musculus [23]": {"system": "Mus musculus", "assay": "Antioxidant activity in high-fat/high-sugar diet and CCl4-induced nonalcoholic steatohepatitis male C57BL/6 mouse assessed as increase in GPX1 mRNA expression at 100 mg/kg, po administered for 4 weeks", "type": "functional, organism-based"}, "Mus musculus [24]": {"system": "Mus musculus", "assay": "Protection against CCl4-induced liver fibrosis in male C57BL/6 mouse assessed as decrease in collagen area in liver at 100 mg/kg measured by masson staining", "type": "functional, organism-based"}, "[25]": {"assay": "Acute toxicity in ICR mouse assessed as change in serum ALB level at 500 mg/kg, IG", "type": "organism-based", "settings": "in vivo, po"}, "[26]": {"assay": "Acute toxicity in ICR mouse assessed as change in serum ALT level at 500 mg/kg, IG", "type": "organism-based", "settings": "in vivo, po"}, "[27]": {"assay": "Acute toxicity in ICR mouse assessed as change in serum DBIL level at 500 mg/kg, IG", "type": "organism-based", "settings": "in vivo, po"}, "[28]": {"assay": "Acute toxicity in ICR mouse assessed as change in serum urea level at 500 mg/kg, IG", "type": "organism-based", "settings": "in vivo, po"}, "[29]": {"assay": "Acute toxicity in ICR mouse assessed as change in serum creatinine level at 500 mg/kg, IG", "type": "organism-based", "settings": "in vivo, po"}, "[30]": {"assay": "Acute toxicity in ICR mouse assessed as change in serum CKMB level at 500 mg/kg, IG", "type": "organism-based", "settings": "in vivo, po"}}, "note": "Active and inactive are the calls of the source. The calls are words filed in the database; no cut-off is given here.", "data": [{"smiles": "COc1ccc(/C=C/c2cc(OC)cc(OCc3ccc(OCC(=O)O)c(F)c3)c2)cc1", "values": [{"measurement": "EC50", "setting": "[1]", "result": 1.5, "unit": "µM"}, {"measurement": "EC50", "setting": "[2]", "result": 8.5, "unit": "µM"}, {"measurement": "Activity", "setting": "Mus musculus [3]", "result": "Active"}, {"measurement": "Activity", "setting": "Mus musculus [4]", "result": "Active"}, {"measurement": "microsomal CLint", "setting": "[5]", "result": 27.1, "unit": "µL/min/mg"}, {"measurement": "Activity", "setting": "Mus musculus [6]", "result": "Active"}, {"measurement": "Activity", "setting": "Mus musculus [7]", "result": "Active"}, {"measurement": "Activity", "setting": "Mus musculus [8]", "result": "Active"}, {"measurement": "Activity", "setting": "Mus musculus [9]", "result": "Active"}, {"measurement": "Activity", "setting": "Mus musculus [10]", "result": "Active"}, {"measurement": "Activity", "setting": "Mus musculus [11]", "result": "Active"}, {"measurement": "Activity", "setting": "Mus musculus [12]", "result": "Active"}, {"measurement": "Activity", "setting": "Mus musculus [13]", "result": "Active"}, {"measurement": "Activity", "setting": "Mus musculus [14]", "result": "Active"}, {"measurement": "Activity", "setting": "Mus musculus [15]", "result": "Active"}, {"measurement": "Activity", "setting": "Mus musculus [16]", "result": "Active"}, {"measurement": "Activity", "setting": "Mus musculus [17]", "result": "Active"}, {"measurement": "Activity", "setting": "Mus musculus [18]", "result": "Active"}, {"measurement": "Activity", "setting": "Mus musculus [19]", "result": "Active"}, {"measurement": "Activity", "setting": "Mus musculus [20]", "result": "Active"}, {"measurement": "Activity", "setting": "Mus musculus [21]", "result": "Active"}, {"measurement": "Activity", "setting": "Mus musculus [22]", "result": "Active"}, {"measurement": "Activity", "setting": "Mus musculus [23]", "result": "Active"}, {"measurement": "Activity", "setting": "Mus musculus [24]", "result": "Active"}, {"measurement": "Activity", "setting": "[25]", "result": "Non-Toxic"}, {"measurement": "Activity", "setting": "[26]", "result": "Non-Toxic"}, {"measurement": "Activity", "setting": "[27]", "result": "Non-Toxic"}, {"measurement": "Activity", "setting": "[28]", "result": "Non-Toxic"}, {"measurement": "Activity", "setting": "[29]", "result": "Non-Toxic"}, {"measurement": "Activity", "setting": "[30]", "result": "Non-Toxic"}]}]}
